tested on: TNF α production from mouse macrophages; test: Inhibitory activity of compound on TNF α Production from mouse macrophages (LPS-induced PEC's); type: cell-based; conditions: Macrophage, LPS 10 μg/ml, 18 hours
Protocol: BALB/c mice (female, 5-7 weeks old, Charles River Japan, Tokyo, Japan) were injected i.p. with 1 ml of 2.4% thioglycollate broth. After 4 days, the mice were sacrificed. Peritoneal exudated cells (PEC's) were collected from the peritoneal cavity by washing with minimum essential medium (MEM, Handai biseibutubyou kenkyukai, Osaka, Japan) containing 5 U/ml heparin, 1% fetal bovine serum (FBS, Filtron, Victoria, Australia) and antibiotics. The cells were washed two times with MEM, suspended with MEM containing 10% FBS (complete MEM, cMEM) and seeded into 96-well culture plates (Costar, Cambridge, Mass., USA) at 2×10^5 cells/well. The cells were incubated for 1 hour at 37° C. in a humidified 5% CO2 incubator and washed two times to remove non-adherent cells.
TNF α was induced by 10 μg/ml of LPS (E. coli O111B4, DIFCO, Detroit, Mich., USA) the cells were cultured for 18 hours at 37° C. A compound of the present invention was dissolved in DMSO and added to the culture simultaneously with LPS. The final DMSO concentration was below 0.1%. The TNF α concentration in supernatant and recombinant mouse TNF α standard (rm-TNF α, Genzyme, Mass., USA) were incubated overnight at 4° C. in a 96-well plate coated with anti-mouse TNF α monoclonal antibody (PharMingen, San Diego, Calif., USA) that previously had been blocked with 10% FBS. Each well of the plate first was incubated at room temperature with biotinylated anti-mouse TNF α polyclonal antibodies (PharMingen) for 45 minutes, then with peroxidase-conjugated streptavidin (Kirkegaard & Perry Laboratories Inc., Gaitherburg, Md., USA) for 30 minutes. After each incubation, the plate was washed 4 to 8 times with PBS containing 0.2% Tween 20. TMB (Kirkegaard & Perry Laboratories Inc.) was the peroxidase substrate used and, the absorbance of each well was quantified at 450 nm by a microplatereader (Molecular Devices Corp., CA, USA). TNF α levels in the supernatant were quantified with rm-TNF α as the standard.

| Structure (SMILES) | inhibition at 30 µM [%] |
| --- | --- |
| Nc1nc(C2CCN(C(=O)c3ccc(Cl)c(Cl)c3)CC2)c2ccccc2n1 [Example 62] | 55 |
| COc1ccc2nc(N)nc(C3CCN(C(=O)c4ccc(Cl)cc4)CC3)c2c1 [Example 113] | -1 |
| Nc1nc(C2CCN(C(=O)NCc3ccccc3)CC2)c2ccccc2n1 [Example 280, 2-amino-4-(1-benzyl-carbamoyl-4-piperidinyl)quinazoline] | 34 |
| Nc1nc(Cc2ccc(Cl)cc2)cc(C2CCN(C(=O)c3ccc4c(c3)OCO4)CC2)n1 [Example 250] | 91 |
| COc1ccc(CC(=O)N2CCC(c3cc(-c4ccc(Cl)cc4)nc(N)n3)CC2)cc1 [Example 151] | 70 |
| Nc1nc(C2CCN(C(=O)c3ccccc3[N+](=O)[O-])CC2)c2ccccc2n1 [Example 38] | 30 |
| CC(C)(C)OC(=O)NCCCCCCCC(=O)N1CCC(c2nc(N)nc3ccccc23)CC1 [Example 28, 2-amino-4-[1-(8-t-butoxycarbonylaminooctanoyl)-4-piperidinyl]quinazoline] | 100 |
| CCCCCCCCC(=O)N1CCC(c2cc(CCc3ccccc3)nc(N)n2)CC1 [Example 256] | 75 |
| COc1ccc(Cc2cc(C3CCN(C(=O)Cc4ccc(Cl)c(Cl)c4)CC3)nc(N)n2)cc1 [Example 241] | 95 |
| COc1ccc(Cc2cc(C3CCN(C(=O)OCc4ccccc4)CC3)nc(N)n2)cc1 [Example 274] | 49 |
| Nc1nc(CCc2ccccc2)cc(C2CCN(C(=O)Cc3ccc(Cl)cc3)CC2)n1 [Example 262] | 43 |
| CCCCCCCCCC(=O)N1CCC(c2cc(-c3ccccc3)nc(N)n2)CC1 [Example 138] | 70 |
| CCCCCCCCCC(=O)N1CCC(c2nc(N)nc3ccc(OC)cc23)CC1 [Example 106] | 54 |
| COc1ccccc1CC(=O)N1CCC(c2nc(N)nc3ccccc23)CC1 [Example 77] | 27 |
| Nc1nc(C2CCN(C(=O)Cc3cccc(Cl)c3)CC2)c2ccccc2n1 [Example 81] | 56 |
| COc1ccc(Cc2cc(C3CCN(C(=O)Cc4ccccc4OC)CC3)nc(N)n2)cc1 [Example 222] | 36 |
| COc1ccc(Cc2cc(C3CCN(C(=O)c4ccc(OC)cc4OC)CC3)nc(N)n2)cc1 [Example 198] | 29 |
| CCCCCCCCCCC(=O)N1CCC(c2nc(N)nc3ccccc23)CC1 [Example 24] | 70 |
| COc1ccc(Cc2cc(C3CCN(C(=O)c4cc(Cl)ccc4Cl)CC3)nc(N)n2)cc1 [Example 205] | 51 |
| COc1ccc(Cc2cc(C3CCN(C(=O)c4ccc(OC)c(OC)c4OC)CC3)nc(N)n2)cc1 [Example 213] | 43 |
| CCCCCCCCCC(=O)N1CCC(c2nc(N)nc3ccccc23)CC1 [Example 23] | 67 |
| COc1ccc(Cc2cc(C3CCN(C(=O)c4ccncc4)CC3)nc(N)n2)cc1 [Example 196] | 57 |

| Structure (SMILES) | inhibition at 30 µM [%] |
| --- | --- |
| COc1ccc(Cc2cc(C3CCN(C(=O)CCO)CC3)nc(N)n2)cc1 [Example 177] | 46 |
| COc1ccc(Cc2cc(C3CCN(C(=O)NCc4ccccc4)CC3)nc(N)n2)cc1 [Example 283, 2-amino-4-(1-benzylcarbamoyl-4-piperidinyl)-6-(4-methoxyphenylmethyl)pyrimidine] | 81 |
| COc1cccc(C(=O)N2CCC(c3nc(N)nc4ccccc34)CC2)c1OC [Example 52] | 20 |
| CCCCCCCC(=O)N1CCC(c2cc(CCc3ccccc3)nc(N)n2)CC1 [Example 255] | 47 |
| Nc1nc(C2CCN(C(=O)CCCCCCCCCO)CC2)c2ccccc2n1 [Example 30] | 64 |
| COc1ccc(Cc2cc(C3CCN(C(=O)CCBr)CC3)nc(N)n2)cc1 [Example 175] | 48 |
| COc1ccc(Cc2cc(C3CCN(C(=O)C(C)(C)C)CC3)nc(N)n2)cc1 [Example 173] | 31 |
| CCCCCCCC(=O)N1CCC(c2cc(-c3ccc(OC)cc3)nc(N)n2)CC1 [Example 154] | 86 |
| CCCCC(=O)N1CCC(c2cc(Cc3ccc(OC)cc3)nc(N)n2)CC1 [Example 165] | 41 |
| Nc1nc(Cc2ccc(Cl)cc2)cc(C2CCN(C(=O)Cc3ccc(Cl)cc3)CC2)n1 [Example 252] | 96 |
| CCCCCCCCCC(=O)N1CCC(c2nc(N)nc3ccc(Cl)cc23)CC1 [Example 129] | 48 |
| COc1ccc(-c2cc(C3CCN(C(=O)Cc4ccc(Cl)cc4)CC3)nc(N)n2)cc1 [Example 159] | 75 |
| CCCCCCCCC(=O)N1CCC(c2cc(Cc3ccc(Cl)cc3)nc(N)n2)CC1 [Example 248] | -6 |
| CCCC(=O)N1CCC(c2nc(N)nc3ccccc23)CC1 [Example 17] | 8 |
| COc1ccc(Cc2cc(C3CCN(C(=O)CCN)CC3)nc(N)n2)cc1 [Example 287, 2-amino-4-[1-(3-aminopropanoyl)-4-piperidinyl]-6-(4-methoxyphenylmethyl)pyrimidine] | 40 |
| COc1ccc(OC)c(C(=O)N2CCC(c3nc(N)nc4ccccc34)CC2)c1OC [Example 69] | -95 |
| COc1cc(C(=O)N2CCC(c3nc(N)nc4ccccc34)CC2)cc(OC)c1OC [Example 72] | 32 |
| CCC(=O)N1CCC(c2cc(Cc3ccc(OC)cc3)nc(N)n2)CC1 [Example 163] | 79 |
| Nc1nc(C2CCN(C(=O)c3cccc(Cl)c3)CC2)c2ccccc2n1 [Example 36] | 42 |
| COc1ccc(Cc2cc(C3CCN(C(=O)c4ccccc4[N+](=O)[O-])CC3)nc(N)n2)cc1 [Example 184] | 73 |
| Nc1nc(CCc2ccccc2)cc(C2CCN(C(=O)Cc3ccc([N+](=O)[O-])cc3)CC2)n1 [Example 263] | 37 |
| Nc1nc(-c2ccccc2)cc(C2CCN(C(=O)Cc3ccc(Cl)cc3)CC2)n1 [Example 143] | 55 |

| Structure (SMILES) | inhibition at 30 µM [%] |
| --- | --- |
| Nc1nc(C2CCN(C(=O)c3ccncc3)CC2)c2ccccc2n1 [Example 51] | 28 |
| CCCCCCCC(=O)N1CCC(c2cc(Cc3ccc(OC)cc3)nc(N)n2)CC1 [Example 168] | 49 |
| COc1ccc(Cc2cc(C3CCN(C(=O)Cc4cccc(OC)c4)CC3)nc(N)n2)cc1 [Example 223] | 82 |
| COc1ccc(Cc2cc(C3CCN(C(=O)c4c(OC)ccc(OC)c4OC)CC3)nc(N)n2)cc1 [Example 214] | 13 |
| COc1ccc(Cc2cc(C3CCN(C(=O)c4ccc(OC)cc4)CC3)nc(N)n2)cc1 [Example 180] | 70 |
| COc1ccc2nc(N)nc(C3CCN(C(=O)c4ccc([N+](=O)[O-])cc4)CC3)c2c1 [Example 116] | 23 |
| Nc1nc(C2CCN(C(=O)Cc3ccc(Cl)c(Cl)c3)CC2)c2ccccc2n1 [Example 96] | 100 |
| COc1ccc(Cc2cc(C3CCN(C(=O)Cc4ccc(Cl)cc4)CC3)nc(N)n2)cc1 [Example 227] | 63 |
| CC(C)(C)OC(=O)NCCCCCCC(=O)N1CCC(c2nc(N)nc3ccccc23)CC1 [Example 27, 2-amino-4-[1-(7-t-butoxycarbonylaminoheptanoyl)-4-piperidinyl]quinazoline] | 95 |
| COc1ccc(CC(=O)N2CCC(c3nc(N)nc4ccccc34)CC2)cc1OC [Example 92] | 68 |
| COc1ccc(-c2cc(C3CCN(C(=O)Cc4ccc([N+](=O)[O-])cc4)CC3)nc(N)n2)cc1 [Example 160] | 57 |
| Nc1nc(C2CCN(C(=O)c3ccc([N+](=O)[O-])cc3)CC2)c2ccccc2n1 [Example 40] | 15 |
| COc1ccc(Cc2cc(C3CCN(C(=O)c4cccc([N+](=O)[O-])c4)CC3)nc(N)n2)cc1 [Example 185] | 69 |
| COc1ccc(Cc2cc(C3CCN(C(=O)Cc4ccc(OC)c(OC)c4)CC3)nc(N)n2)cc1 [Example 237] | 87 |
| CCCCCCCC(=O)N1CCC(c2nc(N)nc3ccccc23)CC1 [Example 21] | 74 |
| Nc1nc(C2CCN(C(=O)Cc3ccc(Cl)cc3)CC2)c2cc(Cl)ccc2n1 [Example 132] | 55 |
| Nc1nc(C2CCN(S(=O)(=O)Cc3ccccc3)CC2)c2ccccc2n1 [Example 272] | 5 |
| CCCCCCCCC(=O)N1CCC(c2nc(N)nc3ccc(OC)cc23)CC1 [Example 105] | 54 |
| CCCC(=O)N1CCC(c2cc(Cc3ccc(OC)cc3)nc(N)n2)CC1 [Example 164] | 43 |
| COc1ccc(Cc2cc(C3CCN(C(=O)c4ccccc4Cl)CC3)nc(N)n2)cc1 [Example 181] | 26 |
| Nc1nc(C2CCN(C(=O)c3cc(Cl)ccc3Cl)CC2)c2ccccc2n1 [Example 60] | 73 |

Source: patent US5948786A, “Piperidinylpyrimidine derivatives” (Sumitomo Pharmaceuticals Company, Limited, priority 1996, dated 1999)
